Laboratory results: patent US9833466B2, “Treatment of leukemia with histone deacetylase inhibitors” (Acetylon Pharmaceuticals Inc., priority 2014, dated 2017)
Entries after “also recorded” stand apart in the source; their conditions may differ.

How the values were obtained:
[1] = system: AML cell lines (Kasumi-3, HL-60, and THP-1); assay: AML cell viability assay (Cell Titer Glo), HDAC inhibitor combined with azacitidine; type: cell-based; conditions: combination with azacitidine; 72 hours; synergistic only when CI<0.7
Protocol: With the same amount of cultured AML cells in each well, serial dilutions of one compound were added into each row of the wells from left to right, and serial dilutions of the second compound were mixed into each column of these wells from top to bottom. Therefore, those AML cells on the testing plate were exposed to various combinations of the two compounds at different concentrations. The viable cells in each well were measured after 72 hours incubation at 37° C., and the percentage of unviable cells was calculated and normalized to the total cells. […] The CI values were plotted as a function of Fa, as shown in FIGS. 1A-D. In order to avoid any possible false positives due to experimental data variability, a combination was determined “synergistic” only when CI<0.7, as shown in the shaded area of each graph. […] The synergism is driven predominantly by HDAC1/2 inhibition.

MV4-11 = assay: Cell cycle by flow cytometry (EdU, Far Red) in MV4-11; type: cell-based; conditions: single agent, 72 h
Protocol: The distribution of cells among G0/G1 phase, G2/M phase, S phase and subG1 phase was determined. […] The relative fraction of cells that were live, in early apoptosis, in late apoptosis, or dead was then determined.
FIG. 17. […] (A) Indicated AML cell lines were exposed to increasing concentrations of Compound J to confirm their sensitivity to HDAC1/2 inhibition. (B-D) MV4-11 cells were treated with indicated concentrations of compounds. (B) Surface levels of myeloid differentiation marker CD11b were determined by FACS at 72 h post-treatment. […] (C) Cell cycle was assessed by flow cytometry after incorporation of EdU and staining with Far Red at 72 h post-treatment. The distribution of cells among G0/G1 phase, G2/M phase, S phase and subG1 phase was determined. […] (D) Apoptosis was assessed by flow cytometry via measuring Annexin V binding and cellular permeability to propidium iodide at 96 h post-treatment. The relative fraction of cells that were live, in early apoptosis, in late apoptosis or dead was then determined.

MV4-11 cells = assay: MV4-11 tumor growth and survival in Ncr nu/nu mice; type: in vivo
Protocol: Ncr nu/nu mice implanted with MV4-11 cells were treated with vehicle, azacitidine (5 mg/kg IV q3d), or azacitidine (5 mg/kg IV q3d) plus Compound A (50 mg/kg IP 5/2/5/2/5/2/5) for up to 4 weeks. (A) Tumor volume was measured twice weekly and the mean tumor volume±SD is plotted. (B) Fold tumor volume change on day 19 relative to day 1 is plotted. (C) Survival curve was plotted.

multiple myeloma = conditions: preclinical models of multiple myeloma; cited from earlier work
[2] = system: HL-60, NB4, MV4-11, Kasumi-1, THP-1, and MOLM-13; assay: Single agent activity on viability in AML cell lines; type: cell-based; conditions: 72 hours, six AML cell lines
Protocol: FIGS. 3A-D show the single agent activity on viability in AML cell lines. Briefly, each of the following cell lines: HL-60, THP-1, MV-4-11, Kasumi-1, NB4, and MOLM-13 were exposed to increasing concentrations of either Compound B (FIG. 3A), Compound A (FIG. 3B), Compound E (FIG. 3C), or azacitidine (FIG. 3D) to determine their response to drug treatment. […] The panel of cell lines was also treated with azacitidine to measure their sensitivity.
FIGS. 8A-F show the single agent activity on viability in AML cell lines. […] Viability was calculated as a percentage of control (DMSO treated cells). Growth inhibition curves were generated using GraphPad Prism 6.
FIG. 17. […] (B-D) MV4-11 cells were treated with indicated concentrations of compounds. (B) Surface levels of myeloid differentiation marker CD11b were determined by FACS at 72 h post-treatment. […] (C) Cell cycle was assessed by flow cytometry after incorporation of EdU and staining with Far Red at 72 h post-treatment. The distribution of cells among G0/G1 phase, G2/M phase, S phase and subG1 phase was determined. […] (D) Apoptosis was assessed by flow cytometry via measuring Annexin V binding and cellular permeability to propidium iodide at 96 h post-treatment. The relative fraction of cells that were live, in early apoptosis, in late apoptosis or dead was then determined.

NB4 = assay: Surface CD11b by FACS in NB4; type: cell-based; conditions: combination with azacitidine vs single agent, 72 hours
Protocol: Briefly, the AML cell lines HL-60 (FIGS. 4A and 4D), Kasumi-1 (FIGS. 4B and 4E) and NB4 (FIGS. 4C and 4F) were treated with the indicated concentrations of compounds. In FIGS. 4A-C, surface levels of myeloid differentiation marker CD11b were determined by FACS at 72 hours post-treatment. […] In FIGS. 4D-F, apoptosis was assessed by flow cytometry by measuring Annexin V binding and cellular permeability to propidium iodide at 96 hours post-treatment. The relative fraction of cells that were alive, in early apoptosis, in late apoptosis, or dead was then determined.
FIGS. 7A-F show the combination of HDAC inhibitors and azacitidine in the NB4 cell line. Briefly, cells were treated with DMSO, Compound B, Compound A, or Compound E as single agent or in combination with azacitidine at the indicated concentrations. Surface levels of CD11b were determined 72 hours post-treatment (FIGS. 7A, 7C, 7E), and apoptosis was assessed 96 hours post-treatment (FIGS. 7B, 7D, 7F).

AML1/ETO fusion protein = AML1/ETO fusion protein Western blot in Kasumi-1 cells; type: cell-based; conditions: 24 hours
Protocol: One type of AML has a signature chromosome translocation t(8:21) and therefore expression of a unique fusion protein AML1/ETO. […] In this study, Kasumi-1 cells were exposed to different concentrations of the HDAC inhibitor Compound A, or another HDAC1/2/6 selective inhibitor Compound G (data not shown), for 24 hours. The whole cell lysates were separated by SDS-PAGE (SDS-polyacrylamide gel electrophoresis) and transferred to a membrane (Western blot). The AML1/ETO fusion protein was detected on the membrane using an AML1 specific antibody.

Kasumi-1 = Kasumi-1 cell cycle by propidium iodide staining (sub-G1); type: cell-based; conditions: 72 hours, increasing concentrations
Protocol: HDAC inhibition causing AML cell death (apoptosis) was measured by staining the AML cells with propidium iodide after the cells were exposed to different concentrations of the HDAC inhibitors. Four distinct cell populations, G1, S, G2, and sub-G1, were separated and quantified based on their propidium iodide staining patterns. The sub-G1 cells are those dying or dead cells, and the percentage of this population was a reflection of the tested compound cytotoxicity.

[3] = Compound A 50 mg/kg IP plus azacitidine 5 mg/kg IV q3d, vs azacitidine or vehicle alone

Structure (SMILES): O=C(CCCCCCNC(=O)c1cnc(N(c2ccccc2)c2ccccc2)nc1)NO [Compound A, 2-(diphenylamino)-N-(7-(hydroxyamino)-7-oxoheptyl)pyrimidine-5-carboxamide]
- synergy of cytotoxicity with azacitidine (CI vs Fa) [1]: significant synergistic cell killing
- cell cycle arrest (MV4-11): induced cell cycle arrest as well as apoptosis
- survival (MV4-11 cells; [3]): further enhanced; also recorded: increased survival in vivo
- tumor growth (MV4-11 cells; [3]): further enhanced; also recorded: reduced tumor growth in vivo
- fold tumor volume change (MV4-11 cells; Compound A plus azacitidine vs azacitidine or vehicle alone, day 19 relative to day 1): reduced the fold tumor volume change
- synergy with bortezomib and immunomodulatory agents (multiple myeloma): synergizes with bortezomib
- viability IC50 relative to HDAC selective range [2]: has some inhibitory effects on HDAC1/2 at their IC50 values
- CD11b positive cells (NB4): synergistic increases of CD11b positive cells
- amount of AML1/ETO fusion protein (AML1/ETO fusion protein): decrease the amount of this fusion protein in a concentration dependent manner

Structure (SMILES): O=C(CCCCCCNC(=O)c1cnc(N(c2ccccc2)c2ccccc2Cl)nc1)NO [Compound B, 2-((2-chlorophenyl)(phenyl)amino)-N-(7-(hydroxyamino)-7-oxoheptyl)pyrimidine-5-carboxamide]
- sub-G1 cells (dying or dead cells) (Kasumi-1): Increased amount of sub-G1 cells
- CD11b positive cells (NB4): synergistic increases of CD11b positive cells

Structure (SMILES): Nc1ccc(-c2cccs2)cc1NC(=O)c1ccc2c(c1)cc(C1CC1)n2CCN1CCOCC1 [Compound E, N-(2-amino-5-(thiophen-2-yl)phenyl)-2-cyclopropyl-1-(2-morpholinoethyl)-1H-indole-5-carboxamide]
- sub-G1 cells (dying or dead cells) (Kasumi-1): Increased amount of sub-G1 cells
- synergy of cytotoxicity with azacitidine (CI vs Fa) [1]: the most synergy
- cell cycle arrest (MV4-11): induced cell cycle arrest as well as apoptosis
- viability IC50 relative to HDAC selective range [2]: within its HDAC1/2 selective range
